One experiment relates to Noxa. Nature of the experiment: Western blot for Noxa in primary AML sample L-AML6. It is filed as cell-based, human. The conditions noted are these: L-AML6, 48 h. Here is the method:
Cells were harvested (4×10^6 for cell lines and 7×10^6 for L-AMLs) and washed 3 times with cold PBS (centrifuged at 4° C.). Lysis buffer was prepared with NP40 Cell Lysis Buffer (ThermoFisher Scientific), cOmplete protease inhibitor (Roche, 046993116001), PhosStop (Roche, 04906837001) and Pefablock (Roche, 11585916001) at the recommended concentrations. After the washes, cells were resuspended in 50 μL of lysis buffer, vortexed and incubated on ice for 30 min. Samples were vortexed every 10 min. After 30 min incubation, samples were centrifuged at 14,000 g at 4° C. for 10 min and supernatants were transferred to tubes. Protein was quantified using the DC Protein Assay kit (BioRad) per manufacturer's protocol. 50 μg of cell lines lysate or 20 μg of L-AML6 lysate were loaded for SDS-PAGE. Protein was transferred from the gels into PVDF membranes using a semi dry transfer apparatus (BioRad). The membranes were blocked for 1 h at room temperature with 5% skim milk in 0.1% TBS-t and then incubated with gentle shaking with primary antibodies overnight at 4° C. […]
Western blot analysis. […] For L-AML6 cells P-JNK^Thr183/Tyr185 and Noxa expression were determined using the specific antibodies that have been validated in the cell line experiments (FIG. 4). […]

In experiment [1] the test system is GPR56+ LSC containing population of AML samples. Briefly: LSC detection by flow cytometry (CD34, CD38, GPR56). The class given is cell-based, human. Here is the method: 8×10^5 cells (800 μL) were harvested in 5 mL tubes and fixed with 1.6% formaldehyde for 10 min at room temperature. The samples were then washed once with PBS and once with PBS/1% BSA. The cell pellets were resuspended in 100 μL PBS/1% BSA containing 5 μL of anti-CD34-APC (BD Biosciences, clone 8G12, catalogue 340441, lot 6183704), 5 μL of anti-CD38-PECy7 (BD Biosciences, 335790, lot 3353807) and 5 μL of anti-GPR56-PE (Biolegend, 358204, lot B208353) and incubated at room temperature for 1 h in the dark. Finally, cells were washed twice with PBS and resuspended in 200 μL of PBS for analysis on an LSRFortessa (BD Biosciences) flow cytometer. Results were analysed with FCS Express 4 Flow Research Edition software (De Novo Software).
LSC analysis. AML BMMNC samples were first gated for viable cells and then the fraction of GPR56+ cells was determined. According to the report by Pabst and collaborators (Pabst et al, Blood 2016), in CD34^high AML samples the GPR56+ population containing LSCs is present within the CD34+ cells, while in CD34^low AML samples the GPR56+ population containing LSCs is present in both CD34+ and CD34− cell populations. Therefore, the LSC containing subpopulation was estimated from the CD34+/GPR56+ gate for AML235, and from the GPR56+/CD34+ and GPR56+/CD34− gates in AML136 and AML480 (FIG. 6A). A decrease in these subpopulations in response to EX 1 would be consistent with the drug targeting the important LSC-containing compartment. […] On the other hand, OXi4503 treatment, when compared to vehicle control (DMSO), had little effect on AML136 and no effect on AML235 and AML480 (FIG. 6B).

Results on two compounds are retold here after patent publication US11478445B2, “Method for treating acute myeloid leukemia” (Bionomics Limited, priority 2017, dated 2022).

Entries after “also recorded” stand apart in the source; their conditions may differ.

Take `COc1cc(C(=O)c2c(C)oc3c(O)c(OC)ccc23)cc(OC)c1OC` [EX 1, 2-Methyl-7-hydroxy-3-(3,4,5-trimethoxybenzoyl)-6-methoxybenzofuran]: in the experiment with Noxa, the Noxa expression result is listed as “no change was observed; also recorded: does not appear to change”. In addition, the “GPR56+ LSC containing cell population” value in experiment [1] (AML136, AML235, AML480, 48 h) was “affected at different rates”. Moreover, the “concentration at which the LSC population is decreased (as low as)” value in experiment [1] (AML samples, 48 h, FIG. 6C) is given as 20 nM.

On to `COc1cc(/C=C\c2ccc(OC)c(OP(=O)(O)O)c2OP(=O)(O)O)cc(OC)c1OC` [OXi4503, reference compound], for which, in the experiment on Noxa, the Noxa expression entry is on record as “no change was observed; also recorded: does not appear to change”. Besides, the “effect on GPR56+ LSC containing population vs DMSO” value in experiment [1] (AML136, 48 h) is “little effect”; in experiment [1] (AML235 and AML480, 48 h), “no effect”.
